Literature values as cited in patent US10577339B2, “Method for manufacturing furan-2,5-dicarboxylic acid (FDCA) from a salt solution” (PURAC BIOCHEM BV, priority 2015, dated 2020).

Conditions: at 40° C.

- saturation concentration: 32.8%
Structure (SMILES): O=S(=O)([O-])[O-].[Na+].[Na+] [Na2SO4, sodium sulphate]
